# Experimental data as given in patent publication US20130158075A1, “HETEROCYCLIC COMPOUNDS AS DGAT1 INHIBITORS” (PIRAMAL ENTERPRISES LIMITED, priority 2010, published 2013).
# Molecular target: T1, hDGAT1 (Homo sapiens, UniProt O75907)
# T1 construct: made in house; host or cells: Sf9 insect cells (baculovirus); microsomal fraction
# T1 sequence (O75907 1-488): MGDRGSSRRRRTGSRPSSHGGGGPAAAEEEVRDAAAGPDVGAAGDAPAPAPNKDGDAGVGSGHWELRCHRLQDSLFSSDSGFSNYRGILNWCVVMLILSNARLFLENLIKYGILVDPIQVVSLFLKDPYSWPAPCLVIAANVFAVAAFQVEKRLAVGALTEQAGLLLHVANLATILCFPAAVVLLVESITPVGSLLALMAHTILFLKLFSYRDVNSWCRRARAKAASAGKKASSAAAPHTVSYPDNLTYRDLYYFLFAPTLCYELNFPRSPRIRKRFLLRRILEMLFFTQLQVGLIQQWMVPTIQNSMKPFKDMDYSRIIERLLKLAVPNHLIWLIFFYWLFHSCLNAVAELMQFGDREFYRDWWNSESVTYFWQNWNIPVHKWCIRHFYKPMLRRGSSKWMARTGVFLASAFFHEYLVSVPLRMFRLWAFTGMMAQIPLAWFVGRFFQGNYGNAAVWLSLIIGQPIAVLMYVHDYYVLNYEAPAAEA
# Test: In-vitro DGAT1 assay with hDGAT1 microsomes from Sf9 cells (14C oleoyl CoA, scintillation counting)
# Format: biochemical
# Settings: read-out: Percentage inhibition of hDGAT1
# Procedure, shortened: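 Radiolabelled triglyceride formation was measured: heptane extracts were scintillation-counted after a 10-min, 37 °C reaction stopped with alkaline ethanol. Enzyme was human DGAT1 in baculovirus-infected Sf9 microsomal membranes; substrates were 14C oleoyl-CoA plus dioleoylglycerol. Runs were duplicated, and inhibition (%) was related to nM compound concentration.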
row,inhibition at 1 µM [%],Compound
1,> 50,"O=C(Nc1ccc(-c2cnc(C3CCC(C(=O)O)CC3)s2)cc1)Nc1ccc(F)c(F)c1 (stereo not drawn) [Example 180, 4-(5-(4-(3-(3,4-Difluorophenyl)ureido)phenyl)thiazol-2-yl)cyclohexane carboxylic acid]"
2,> 50,"O=C(Nc1ccc(-c2cnc(C3CCC(C(=O)O)CC3)s2)cc1)Nc1cc(F)cc(F)c1 (stereo not drawn) [Example 182, 4-(5-(4-(3-(3,5-Difluorophenyl)ureido)phenyl)thiazol-2-yl)cyclohexane carboxylic acid]"
3,> 50,"O=C(Nc1ccc(-c2cnc(C3CCC(C(=O)O)CC3)s2)cc1)Nc1c(F)cccc1F (stereo not drawn) [Example 184, 4-(5-(4-(3-(2,6-Difluorophenyl)ureido)phenyl)thiazol-2-yl)cyclohexane carboxylic acid]"
4,> 50,"O=C(Nc1ccc(-c2cnc(C3CCC(C(=O)O)CC3)s2)cc1)Nc1ccc(F)c(F)c1F (stereo not drawn) [Example 186, 4-(5-(4-(3-(2,3,4-Trifluorophenyl)ureido)phenyl)thiazol-2-yl)cyclohexane carboxylic acid]"
5,> 50,"O=C(Nc1ccc(-c2cnc(C3CCC(C(=O)O)CC3)s2)cc1)Nc1ccccc1Cl (stereo not drawn) [Example 188, 4-(5-(4-(3-(2-Chlorophenyl)ureido)phenyl)thiazol-2-yl)cyclohexane carboxylic acid]"
6,> 50,"O=C(Nc1ccc(-c2cnc(C3CCC(C(=O)O)CC3)s2)cc1)Nc1ccc(Cl)cc1Oc1ccccc1 (stereo not drawn) [Example 190, 4-(5-(4-(3-(4-Chloro-2-phenoxyphenyl)ureido)phenyl)thiazol-2-yl)cyclohexane carboxylic acid]"
7,> 50,"O=C(Nc1ccccc1)Nc1ccc(-c2cnc(C3CCC(C(=O)O)CC3)s2)cc1 (stereo not drawn) [Example 192, 4-(5-(4-(3-Phenylureido)phenyl)thiazol-2-yl)cyclohexanecarboxylic acid]"
8,> 50,"CC(C)(C)c1ccc(C(=O)Nc2ccc(-c3cnc(C4CCC(C(=O)O)CC4)s3)cc2)cc1 (stereo not drawn) [Example 194, 4-(5-(4-(4-t-Butylbenzamido)phenyl)thiazol-2-yl)cyclohexanecarboxylic acid]"
9,20 to 50,"O=C(Nc1ccc(-c2cnc(C3CCC(C(=O)O)CC3)s2)cc1)c1ccccc1Cl (stereo not drawn) [Example 196, 4-(5-(4-(2-Chlorobenzamido)phenyl)thiazol-2-yl)cyclohexanecarboxylic acid]"
10,> 50,"O=C(Nc1ccc(-c2cnc(C3CCC(C(=O)O)CC3)s2)cc1)c1ncc(-c2ccccc2)o1 (stereo not drawn) [Example 198, 4-(5-(4-(5-Phenyloxazole-2-carboxamido)phenyl)thiazol-2-yl)cyclohexane carboxylic acid]"
11,20 to 50,"O=C(Nc1ccc(-c2cnc(C3CCC(C(=O)O)CC3)o2)cc1)Nc1ccccc1Cl (stereo not drawn) [Example 204, 4-(5-(4-(3-(2-Chlorophenyl)ureido)phenyl)oxazol-2-yl)cyclohexanecarboxylic acid]"
12,20 to 50,"O=C(Nc1ccccc1)Nc1ccc(-c2cnc(C3CCC(C(=O)O)CC3)o2)cc1 (stereo not drawn) [Example 206, 4-(5-(4-(3-Phenylureido)phenyl)oxazol-2-yl)cyclohexanecarboxylic acid]"
13,> 50,"O=C(Nc1ccc(-c2cnc(C3CCC(C(=O)O)CC3)o2)cc1)Nc1cccc(Cl)c1 (stereo not drawn) [Example 208, 4-(5-(4-(3-(3-Chlorophenyl)ureido)phenyl)oxazol-2-yl)cyclohexanecarboxylic acid]"
14,20 to 50,"COc1ccccc1NC(=O)Nc1ccc(-c2cnc(C3CCC(C(=O)O)CC3)o2)cc1 (stereo not drawn) [Example 210, 4-(5-(4-(3-(2-Methoxyphenyl)ureido)phenyl)oxazol-2-yl)cyclohexane carboxylic acid]"
15,20 to 50,"CC(C)(C)c1ccc(C(=O)Nc2ccc(-c3cnc(C4CCC(C(=O)O)CC4)o3)cc2)cc1 (stereo not drawn) [Example 214, 4-(5-(4-(4-Tert-butylbenzamido)phenyl)oxazol-2-yl)cyclohexanecarboxylic acid]"
